These are literature values, as cited in US6815409B2, “Gel laundry detergent and/or pretreater which piles up after dispensing” (Unilever Home & Personal Care USA division of Conopco, Inc., priority 2002, dated 2004).

The conditions of this series: chain length 16; cited from Proc. R. Soc. London, A133, 140, 1931.

SMILES strings stand for the structures.

Consider `CCCCCCCCCCCCCCCC(=O)O` [Fatty acid chain length 16], for which the “Measured pKa value” was 8.5.
